Values joined by “and” are separate entries in the source; they are usually repeats but may differ in a detail not shown here. Equal values may be shown once.
How the values were obtained:
Assay in all cases: KINOMEscan assay (Eurofins DiscoverX)
Format in all cases: binding
[1] = target: T1, kinome (kinase panel) (Homo sapiens, UniProt P49760); settings: CLK2; 1000 nM; read-out: Percent Control
T1 construct: purchased Eurofins DiscoverX

[2] = target: T2, kinome (kinase panel) (Homo sapiens, UniProt P54762); settings: EPHB1; 1000 nM; read-out: Percent Control
T2 construct: purchased Eurofins DiscoverX

[3] = target: T3, kinome (kinase panel) (Homo sapiens, UniProt Q86Y07); settings: VRK2; 1000 nM; read-out: Percent Control
T3 construct: purchased Eurofins DiscoverX

[4] = target: T4, kinome (kinase panel) (Homo sapiens, UniProt O00444); settings: PLK4; 1000 nM; read-out: Percent Control
T4 construct: purchased Eurofins DiscoverX

[5] = target: T5, kinome (kinase panel) (Homo sapiens, UniProt O15530); settings: PDPK1; 1000 nM; read-out: Percent Control
T5 construct: purchased Eurofins DiscoverX

[6] = target: T6, kinome (kinase panel) (Homo sapiens, UniProt P35916); settings: FLT4; 1000 nM; read-out: Percent Control
T6 construct: purchased Eurofins DiscoverX

[7] = target: T7, kinome (kinase panel) (Homo sapiens, UniProt Q96SB4); settings: SRPK1; 1000 nM; read-out: Percent Control
T7 construct: purchased Eurofins DiscoverX

[8] = target: T8, kinome (kinase panel) (Homo sapiens, UniProt Q9Y6M4); settings: CSNK1G3; 1000 nM; read-out: Percent Control
T8 construct: purchased Eurofins DiscoverX

[9] = target: T9, kinome (kinase panel) (Homo sapiens, UniProt P53778); settings: p38-gamma (Entrez MAPK12); 1000 nM; read-out: Percent Control
T9 construct: purchased Eurofins DiscoverX

[10] = target: T10, kinome (kinase panel) (Homo sapiens, UniProt Q9UM73, L1196M); settings: […]; 1000 nM; read-out: Percent Control
T10 construct: purchased Eurofins DiscoverX

[11] = target: T11, kinome (kinase panel) (Homo sapiens, UniProt Q14680); settings: MELK; 1000 nM; read-out: Percent Control
T11 construct: purchased Eurofins DiscoverX

[12] = target: T12, kinome (kinase panel) (Homo sapiens, UniProt Q9NSY1); settings: BIKE (Entrez BMP2K); 1000 nM; read-out: Percent Control
T12 construct: purchased Eurofins DiscoverX

[13] = target: T13, kinome (kinase panel) (Homo sapiens, UniProt Q13470); settings: TNK1; 1000 nM; read-out: Percent Control
T13 construct: purchased Eurofins DiscoverX

[14] = target: T14, kinome (kinase panel) (Homo sapiens, UniProt O14757); settings: CHEK1; 1000 nM; read-out: Percent Control
T14 construct: purchased Eurofins DiscoverX

[15] = target: T15, kinome (kinase panel) (Homo sapiens, UniProt P16234); settings: PDGFRA; 1000 nM; read-out: Percent Control
T15 construct: purchased Eurofins DiscoverX

[16] = target: T16, kinome (kinase panel) (Homo sapiens, UniProt P54753); settings: EPHB3; 1000 nM; read-out: Percent Control
T16 construct: purchased Eurofins DiscoverX

[17] = target: T17, kinome (kinase panel) (Homo sapiens, UniProt P42336); settings: PIK3CA; 1000 nM; read-out: Percent Control
T17 construct: purchased Eurofins DiscoverX

[18] = target: T18, kinome (kinase panel) (Homo sapiens, UniProt P0C264); settings: SgK110; 1000 nM; read-out: Percent Control
T18 construct: purchased Eurofins DiscoverX

[19] = target: T19, kinome (kinase panel) (Homo sapiens, UniProt Q9H422); settings: HIPK3; 1000 nM; read-out: Percent Control
T19 construct: purchased Eurofins DiscoverX

[20] = target: T20, kinome (kinase panel) (Homo sapiens, UniProt Q9BXA7); settings: TSSK1B; 1000 nM; read-out: Percent Control
T20 construct: purchased Eurofins DiscoverX

[21] = target: T21, kinome (kinase panel) (Homo sapiens, UniProt Q13043); settings: MST1 (Entrez STK4); 1000 nM; read-out: Percent Control
T21 construct: purchased Eurofins DiscoverX

[22] = target: T22, kinome (kinase panel) (Homo sapiens, UniProt Q8NE63); settings: HIPK4; 1000 nM; read-out: Percent Control
T22 construct: purchased Eurofins DiscoverX

[23] = target: T23, kinome (kinase panel) (Homo sapiens, UniProt P51957); settings: NEK4; 1000 nM; read-out: Percent Control
T23 construct: purchased Eurofins DiscoverX

[24] = target: T24, kinome (kinase panel) (Homo sapiens, UniProt P10721, V559D); settings: […]; 1000 nM; read-out: Percent Control
T24 construct: purchased Eurofins DiscoverX

[25] = target: T25, kinome (kinase panel) (Homo sapiens, UniProt O75747); settings: PIK3C2G; 1000 nM; read-out: Percent Control
T25 construct: purchased Eurofins DiscoverX

[26] = target: T26, kinome (kinase panel) (Homo sapiens, UniProt Q8WTQ7); settings: GRK7; 1000 nM; read-out: Percent Control
T26 construct: purchased Eurofins DiscoverX

[27] = target: T27, kinome (kinase panel) (Homo sapiens, UniProt Q16512); settings: PKN1; 1000 nM; read-out: Percent Control
T27 construct: purchased Eurofins DiscoverX

[28] = target: T28, kinome (kinase panel) (Homo sapiens, UniProt Q13188); settings: MST2 (Entrez STK3); 1000 nM; read-out: Percent Control
T28 construct: purchased Eurofins DiscoverX

[29] = target: T29, kinome (kinase panel) (Homo sapiens, UniProt P00519, F317L)
T29 construct: purchased Eurofins DiscoverX

[30] = target: T30, kinome (kinase panel) (Homo sapiens, UniProt P54764); settings: EPHA4; 1000 nM; read-out: Percent Control
T30 construct: purchased Eurofins DiscoverX

[31] = target: T31, kinome (kinase panel) (Homo sapiens, UniProt O15111); settings: IKK-alpha (Entrez CHUK); 1000 nM; read-out: Percent Control
T31 construct: purchased Eurofins DiscoverX

[32] = target: T32, kinome (kinase panel) (Homo sapiens, UniProt Q59H18); settings: TNNI3K; 1000 nM; read-out: Percent Control
T32 construct: purchased Eurofins DiscoverX

[33] = target: T33, kinome (kinase panel) (Homo sapiens, UniProt Q07002); settings: PCTK3 (Entrez CDK18); 1000 nM; read-out: Percent Control
T33 construct: purchased Eurofins DiscoverX

T29 sequence (P00519 whole entry F317L): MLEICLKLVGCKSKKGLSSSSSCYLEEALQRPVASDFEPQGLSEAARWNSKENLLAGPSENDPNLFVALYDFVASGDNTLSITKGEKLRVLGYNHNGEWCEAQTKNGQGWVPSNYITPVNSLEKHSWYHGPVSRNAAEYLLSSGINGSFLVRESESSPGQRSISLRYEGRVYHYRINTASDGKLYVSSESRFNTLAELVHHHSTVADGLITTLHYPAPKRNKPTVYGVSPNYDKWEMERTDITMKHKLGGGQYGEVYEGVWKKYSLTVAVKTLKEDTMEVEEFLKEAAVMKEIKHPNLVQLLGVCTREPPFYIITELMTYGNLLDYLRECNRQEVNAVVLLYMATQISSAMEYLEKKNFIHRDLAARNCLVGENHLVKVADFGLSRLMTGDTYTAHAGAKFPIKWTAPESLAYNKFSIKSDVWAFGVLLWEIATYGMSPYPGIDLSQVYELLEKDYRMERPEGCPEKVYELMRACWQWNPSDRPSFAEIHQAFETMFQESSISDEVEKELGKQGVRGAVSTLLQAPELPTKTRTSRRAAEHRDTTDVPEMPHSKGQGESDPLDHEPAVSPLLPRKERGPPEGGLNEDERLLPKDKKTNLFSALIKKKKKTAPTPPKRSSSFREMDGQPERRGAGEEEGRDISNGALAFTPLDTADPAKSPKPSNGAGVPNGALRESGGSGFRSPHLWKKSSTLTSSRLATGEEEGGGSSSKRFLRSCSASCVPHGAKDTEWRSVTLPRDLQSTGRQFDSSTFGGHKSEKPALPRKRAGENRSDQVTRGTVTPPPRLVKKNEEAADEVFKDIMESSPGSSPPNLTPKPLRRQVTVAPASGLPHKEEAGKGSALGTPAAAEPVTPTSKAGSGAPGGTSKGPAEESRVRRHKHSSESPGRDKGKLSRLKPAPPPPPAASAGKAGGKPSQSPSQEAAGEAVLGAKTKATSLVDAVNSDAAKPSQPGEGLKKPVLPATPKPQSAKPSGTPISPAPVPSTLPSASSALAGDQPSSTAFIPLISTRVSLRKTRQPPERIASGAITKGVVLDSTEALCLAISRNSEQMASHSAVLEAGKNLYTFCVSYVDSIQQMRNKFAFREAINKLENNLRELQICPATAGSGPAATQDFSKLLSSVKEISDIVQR
T25 sequence (O75747 whole entry): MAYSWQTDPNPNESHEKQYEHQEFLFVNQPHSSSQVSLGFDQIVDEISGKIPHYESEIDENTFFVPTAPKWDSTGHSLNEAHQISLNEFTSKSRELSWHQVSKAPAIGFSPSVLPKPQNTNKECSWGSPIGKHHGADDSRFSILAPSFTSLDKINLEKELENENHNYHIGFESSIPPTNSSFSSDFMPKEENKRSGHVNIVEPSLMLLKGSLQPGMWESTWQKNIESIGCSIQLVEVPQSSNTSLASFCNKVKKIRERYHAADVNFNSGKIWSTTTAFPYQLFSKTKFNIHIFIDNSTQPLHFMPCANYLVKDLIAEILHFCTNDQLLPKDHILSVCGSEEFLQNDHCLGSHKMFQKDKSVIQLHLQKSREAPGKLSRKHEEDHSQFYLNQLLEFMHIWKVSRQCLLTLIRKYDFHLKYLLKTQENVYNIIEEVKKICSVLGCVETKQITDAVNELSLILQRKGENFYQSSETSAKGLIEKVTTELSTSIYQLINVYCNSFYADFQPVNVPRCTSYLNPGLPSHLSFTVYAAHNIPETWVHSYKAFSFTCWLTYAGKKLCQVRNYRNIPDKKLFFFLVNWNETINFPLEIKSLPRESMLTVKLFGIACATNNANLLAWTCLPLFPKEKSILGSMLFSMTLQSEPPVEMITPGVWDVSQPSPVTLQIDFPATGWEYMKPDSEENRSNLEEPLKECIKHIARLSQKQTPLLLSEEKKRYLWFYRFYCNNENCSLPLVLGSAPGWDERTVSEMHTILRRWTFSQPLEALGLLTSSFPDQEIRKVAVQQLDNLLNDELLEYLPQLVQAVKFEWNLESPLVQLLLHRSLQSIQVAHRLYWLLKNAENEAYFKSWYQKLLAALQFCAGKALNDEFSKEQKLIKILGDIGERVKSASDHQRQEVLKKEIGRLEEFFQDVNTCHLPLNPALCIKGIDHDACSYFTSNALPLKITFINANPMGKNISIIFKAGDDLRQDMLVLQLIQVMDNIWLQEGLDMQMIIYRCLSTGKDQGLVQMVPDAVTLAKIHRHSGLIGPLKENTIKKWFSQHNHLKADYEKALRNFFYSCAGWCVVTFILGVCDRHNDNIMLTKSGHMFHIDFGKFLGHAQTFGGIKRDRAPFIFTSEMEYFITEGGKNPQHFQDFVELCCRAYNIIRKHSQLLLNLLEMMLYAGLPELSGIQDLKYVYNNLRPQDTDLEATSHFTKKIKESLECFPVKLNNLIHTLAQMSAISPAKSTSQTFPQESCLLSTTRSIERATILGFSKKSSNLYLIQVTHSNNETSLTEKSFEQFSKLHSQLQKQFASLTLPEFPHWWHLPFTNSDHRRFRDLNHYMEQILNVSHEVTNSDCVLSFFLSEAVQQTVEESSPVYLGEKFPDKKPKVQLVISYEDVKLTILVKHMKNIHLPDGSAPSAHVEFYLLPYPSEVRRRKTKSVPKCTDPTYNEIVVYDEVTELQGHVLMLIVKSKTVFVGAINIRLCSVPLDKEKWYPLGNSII
T12 sequence (Q9NSY1 whole entry): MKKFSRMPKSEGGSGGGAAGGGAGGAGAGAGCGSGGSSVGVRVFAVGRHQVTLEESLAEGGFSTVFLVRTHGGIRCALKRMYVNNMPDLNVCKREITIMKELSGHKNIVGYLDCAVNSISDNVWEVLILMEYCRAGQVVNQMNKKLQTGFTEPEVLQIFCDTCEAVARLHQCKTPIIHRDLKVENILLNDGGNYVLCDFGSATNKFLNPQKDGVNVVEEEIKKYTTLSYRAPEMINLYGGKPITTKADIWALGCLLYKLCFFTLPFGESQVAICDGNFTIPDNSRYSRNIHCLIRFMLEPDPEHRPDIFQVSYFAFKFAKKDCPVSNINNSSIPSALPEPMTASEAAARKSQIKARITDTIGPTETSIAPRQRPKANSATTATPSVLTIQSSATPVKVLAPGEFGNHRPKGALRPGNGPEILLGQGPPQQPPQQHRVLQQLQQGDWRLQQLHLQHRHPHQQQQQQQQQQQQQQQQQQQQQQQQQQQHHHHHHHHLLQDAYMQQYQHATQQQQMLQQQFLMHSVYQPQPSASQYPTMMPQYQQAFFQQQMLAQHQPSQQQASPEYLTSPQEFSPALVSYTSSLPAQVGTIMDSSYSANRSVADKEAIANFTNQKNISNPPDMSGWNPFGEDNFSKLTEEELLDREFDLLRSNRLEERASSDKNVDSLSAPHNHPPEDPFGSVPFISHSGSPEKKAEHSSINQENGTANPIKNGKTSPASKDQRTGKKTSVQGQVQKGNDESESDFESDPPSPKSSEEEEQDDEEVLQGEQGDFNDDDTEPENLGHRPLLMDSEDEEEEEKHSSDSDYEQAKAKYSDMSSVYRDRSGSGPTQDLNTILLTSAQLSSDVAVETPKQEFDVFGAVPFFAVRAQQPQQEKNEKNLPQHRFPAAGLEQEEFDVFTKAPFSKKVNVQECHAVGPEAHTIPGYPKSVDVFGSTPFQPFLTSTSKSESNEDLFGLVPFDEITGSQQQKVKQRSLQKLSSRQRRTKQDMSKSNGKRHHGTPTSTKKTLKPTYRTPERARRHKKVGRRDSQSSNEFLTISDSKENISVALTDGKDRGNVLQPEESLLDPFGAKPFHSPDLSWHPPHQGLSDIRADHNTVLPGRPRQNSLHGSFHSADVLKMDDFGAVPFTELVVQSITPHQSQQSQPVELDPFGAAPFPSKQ
T8 sequence (Q9Y6M4 whole entry): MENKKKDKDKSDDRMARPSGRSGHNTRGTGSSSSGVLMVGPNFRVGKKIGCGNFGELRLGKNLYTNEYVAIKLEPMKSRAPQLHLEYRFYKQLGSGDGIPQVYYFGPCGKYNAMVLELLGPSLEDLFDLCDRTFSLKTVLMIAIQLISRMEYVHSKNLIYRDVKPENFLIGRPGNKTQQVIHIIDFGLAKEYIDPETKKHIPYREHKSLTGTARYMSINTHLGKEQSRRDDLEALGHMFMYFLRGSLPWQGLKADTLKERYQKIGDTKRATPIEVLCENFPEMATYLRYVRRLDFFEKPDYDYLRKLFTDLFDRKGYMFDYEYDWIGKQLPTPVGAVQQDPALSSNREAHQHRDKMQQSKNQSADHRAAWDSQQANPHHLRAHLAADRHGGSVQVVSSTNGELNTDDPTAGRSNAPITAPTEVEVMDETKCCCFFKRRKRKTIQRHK
T32 sequence (Q59H18 whole entry): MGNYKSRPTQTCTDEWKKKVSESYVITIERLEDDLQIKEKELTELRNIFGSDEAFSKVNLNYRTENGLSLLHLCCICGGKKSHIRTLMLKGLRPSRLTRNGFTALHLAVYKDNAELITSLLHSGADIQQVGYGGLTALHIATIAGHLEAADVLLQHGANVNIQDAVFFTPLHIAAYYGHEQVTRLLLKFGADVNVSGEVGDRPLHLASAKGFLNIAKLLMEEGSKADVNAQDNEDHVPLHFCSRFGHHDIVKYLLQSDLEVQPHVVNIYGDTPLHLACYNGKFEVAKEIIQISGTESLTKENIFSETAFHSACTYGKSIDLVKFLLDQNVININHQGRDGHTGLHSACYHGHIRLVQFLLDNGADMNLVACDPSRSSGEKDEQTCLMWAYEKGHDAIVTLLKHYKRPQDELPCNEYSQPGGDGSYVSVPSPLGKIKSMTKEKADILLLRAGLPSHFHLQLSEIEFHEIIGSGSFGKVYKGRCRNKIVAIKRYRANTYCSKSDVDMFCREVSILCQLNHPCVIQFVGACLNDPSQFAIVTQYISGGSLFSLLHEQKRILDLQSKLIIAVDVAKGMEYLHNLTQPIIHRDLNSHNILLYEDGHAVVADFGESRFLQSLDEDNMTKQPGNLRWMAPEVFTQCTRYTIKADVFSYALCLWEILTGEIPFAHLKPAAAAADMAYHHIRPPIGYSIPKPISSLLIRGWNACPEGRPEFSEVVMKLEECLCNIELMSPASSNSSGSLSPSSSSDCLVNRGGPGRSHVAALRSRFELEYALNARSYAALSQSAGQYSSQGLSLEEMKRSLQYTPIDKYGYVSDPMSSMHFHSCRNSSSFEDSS

In the case of CN(C)C(=O)c1cc2cnc(Nc3ccc(-c4csc5c(=O)cc(N6CCOCC6)oc45)cc3)nc2n1C1CCCC1 [SRX3177], the remaining binding at 1 µM [1] is reported as 92%, the remaining binding at 1 µM [2] is reported as 100% and the remaining binding at 1 µM [3] is reported as 21%. The remaining binding at 1 µM [4] was 60%, the remaining binding at 1 µM [5] was 98% and the remaining binding at 1 µM [6] was 88%. For the same compound, the remaining binding at 1 µM [7] was 22%, the remaining binding at 1 µM [8] was 100% and the remaining binding at 1 µM [9] was 66%. For the same compound, the remaining binding at 1 µM [10] was 84%, the remaining binding at 1 µM [11] was 100% and the remaining binding at 1 µM [12] was 10%. It also gave a remaining binding at 1 µM [13] of 57%, a remaining binding at 1 µM [14] of 100% and a remaining binding at 1 µM [15] of 60%. For the same compound, the remaining binding at 1 µM [16] was 97%, the remaining binding at 1 µM [17] was 72% and the remaining binding at 1 µM [18] was 38%. It also gave a remaining binding at 1 µM [19] of 77%, a remaining binding at 1 µM [20] of 90% and a remaining binding at 1 µM [21] of 100%. It also gave a remaining binding at 1 µM [22] of 79%, a remaining binding at 1 µM [23] of 89% and a remaining binding at 1 µM [24] of 49%. The remaining binding at 1 µM [25] was 100%, the remaining binding at 1 µM [26] was 100% and the remaining binding at 1 µM [27] was 55%. For the same compound, the remaining binding at 1 µM [28] was 61%, the “Percent Control” value [29] was 89 and 56 and the remaining binding at 1 µM [30] was 98%. It also gave a remaining binding at 1 µM [31] of 61%, a remaining binding at 1 µM [32] of 94% and a remaining binding at 1 µM [33] of 74%.

Reference: article PMC7385619, “A triple action CDK4/6-PI3K-BET inhibitor with augmented cancer cell cytotoxicity” (Cell Discovery, 2020)
